Drawing on patent US9593108B2, “Compounds and methods for antiviral treatment” (PTC Therapeutics, Inc., priority 2009, dated 2017), this text covers IC50 and melting point for 26 compounds.

Data set [1] deals with HCV replicon RNA (GenBank Accession No. AJ242654). Nature of the data set: HCV Replicon Assay (replicon RNA reduction and/or Fluc reporter signal). Type of data set: cell-based, Hepatitis C virus. To be noted: Hepatitis C virus, 72 h, replicon-containing cells cultured with test compound for up to 3 days. The method, boiled down: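 Bicistronic replicon-containing cells cultured with compound for up to 3 days, with interferon as positive control. Inhibition quantified by replicon RNA reduction and/or Fluc reporter signal; IC50 values generally derived from replicon RNA reduction.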

Take `C[C@@H](NS(=O)(=O)c1ccc(-c2c(C#N)c3cc(N4CCCC4)cnc3n2C2CCC2)nc1)C(F)(F)F` [Cpd 240, 6-[3-cyano-1-cyclobutyl-5-(pyrrolidin-1-yl)-1H-pyrrolo[2,3-b]pyridin-2-yl]-N-[(2R)-1,1,1-trifluoropropan-2-yl]pyridine-3-sulfonamide]: the melting point – broadly, the temperature of the solid-liquid transition – was in the range of 207 to 209 °C. For the same compound, in data set [1], the IC50 (in general, the concentration that gives 50% inhibition) lay in the range of 500 to 2000 nM.
For `COc1cc2c(C#N)c(-c3ccc(S(=O)(=O)N[C@@H](C)C(F)(F)F)cn3)n(C3CCC3)c2nc1C` [Cpd 242, 6-(3-cyano-1-cyclobutyl-5-methoxy-6-methyl-1H-pyrrolo[2,3-b]pyridin-2-yl)-N-[(2S)-1,1,1-trifluoropropan-2-yl]pyridine-3-sulfonamide], in that order: 175 to 177 °C and < 500 nM.
The matching figures for `COc1cc2c(C#N)c(-c3ccc(S(=O)(=O)N[C@H](C)C(F)(F)F)cn3)n(C3CCC3)c2nc1C` [Cpd 243, 6-(3-cyano-1-cyclobutyl-5-methoxy-6-methyl-1H-pyrrolo[2,3-b]pyridin-2-yl)-N-[(2R)-1,1,1-trifluoropropan-2-yl]pyridine-3-sulfonamide]: 175 to 177 °C and 2000 to 5000 nM.
For `CC(C)NS(=O)(=O)c1ccc(-c2c(C#N)c3cc(C(F)(F)F)cnc3n2C2CCC2)nc1` [Cpd 244, 6-[3-cyano-1-cyclobutyl-5-(trifluoromethyl)-1H-pyrrolo[2,3-b]pyridin-2-yl]-N-(propan-2-yl)pyridine-3-sulfonamide], in that order: 186 to 187 °C and < 500 nM.
As to `CCCS(=O)(=O)Nc1ccc(-c2c(C#N)c3cc(C(F)(F)F)cnc3n2C2CCC2)cc1` [Cpd 247, N-{4-[3-cyano-1-cyclobutyl-5-(trifluoromethyl)-1H-pyrrolo[2,3-b]pyridin-2-yl]phenyl}propane-1-sulfonamide], the melting point lay in the range of 180 to 181 °C. For the same compound, in data set [1], the concentration for half-maximal inhibition (IC50) lay within 500 to 2000 nM.
For `COc1cnc2c(c1)c(C#N)c(-c1ccc(S(=O)(=O)N[C@@H](C)C(F)(F)F)cn1)n2C1CCCC1` [Cpd 248, 6-(3-cyano-1-cyclopentyl-5-methoxy-1H-pyrrolo[2,3-b]pyridin-2-yl)-N-[(2S)-1,1,1-trifluoropropan-2-yl]pyridine-3-sulfonamide], in that order: 178 to 180 °C and < 500 nM.
As for `C[C@@H](NS(=O)(=O)c1ccc(-c2c(C#N)c3cc(C4CC4)cnc3n2C2CCCC2)nc1)C(F)(F)F` [Cpd 249, 6-(3-cyano-1-cyclopentyl-5-cyclopropyl-1H-pyrrolo[2,3-b]pyridin-2-yl)-N-[(2R)-1,1,1-trifluoropropan-2-yl]pyridine-3-sulfonamide], the melting point fell in the range of 155 to 164 °C. The compound further returned an IC50 in data set [1] of 500 to 2000 nM.
The matching figures for `C[C@H](NS(=O)(=O)c1ccc(-c2c(C#N)c3cc(C4CC4)cnc3n2C2CCCC2)nc1)C(F)(F)F` [Cpd 250, 6-(3-cyano-1-cyclopentyl-5-cyclopropyl-1H-pyrrolo[2,3-b]pyridin-2-yl)-N-[(2S)-1,1,1-trifluoropropan-2-yl]pyridine-3-sulfonamide]: 157 to 167 °C and < 500 nM.
For `Cc1cnc2c(c1)c(C#N)c(-c1ccc(S(=O)(=O)N[C@H](C)C(F)(F)F)cn1)n2C1CCCC1` [Cpd 254, 6-(3-cyano-1-cyclopentyl-5-methyl-1H-pyrrolo[2,3-b]pyridin-2-yl)-N-[(2R)-1,1,1-trifluoropropan-2-yl]pyridine-3-sulfonamide], in that order: 155 to 162 °C and < 500 nM.
For `Cc1cnc2c(c1)c(C#N)c(-c1ccc(S(=O)(=O)NC3(C)CC3)cn1)n2C1CCCC1` [Cpd 256, 6-(3-cyano-1-cyclopentyl-5-methyl-1H-pyrrolo[2,3-b]pyridin-2-yl)-N-(1-methylcyclopropyl)pyridine-3-sulfonamide], in that order: 143 to 153 °C and 500 to 2000 nM.
For `COc1cnc2c(c1)c(C#N)c(-c1ccc(S(=O)(=O)N(C(C)=O)[C@@H](C)C(F)(F)F)cn1)n2C1CCCC1` [Cpd 257, N-{[6-(3-cyano-1-cyclopentyl-5-methoxy-1H-pyrrolo[2,3-b]pyridin-2-yl)pyridin-3-yl]sulfonyl}-N-[(2S)-1,1,1-trifluoropropan-2-yl]acetamide], the melting point fell in the range of 169 to 173 °C. In data set [1], the IC50 is < 500 nM.
For `CCc1nc2c(cc1OC)c(C#N)c(-c1ccc(S(=O)(=O)N[C@@H](C)C(F)(F)F)cn1)n2C1CCC1` [Cpd 258, 6-(3-cyano-1-cyclobutyl-6-ethyl-5-methoxy-1H-pyrrolo[2,3-b]pyridin-2-yl)-N-[(2S)-1,1,1-trifluoropropan-2-yl]pyridine-3-sulfonamide], in that order: 186 to 189 °C and < 500 nM.
The matching figures for `CCc1nc2c(cc1OC)c(C#N)c(-c1ccc(S(=O)(=O)N[C@H](C)C(F)(F)F)cn1)n2C1CCC1` [Cpd 259, 6-(3-cyano-1-cyclobutyl-6-ethyl-5-methoxy-1H-pyrrolo[2,3-b]pyridin-2-yl)-N-[(2R)-1,1,1-trifluoropropan-2-yl]pyridine-3-sulfonamide]: 189 to 199 °C and 2000 to 5000 nM.
For `CCC(NS(=O)(=O)c1ccc(-c2c(C#N)c3cc(Cl)cnc3n2C2CCCC2)nc1)C(F)(F)F` (stereo not shown) [Cpd 260, 6-(5-chloro-3-cyano-1-cyclopentyl-1H-pyrrolo[2,3-b]pyridin-2-yl)-N-(1,1,1-trifluorobutan-2-yl)pyridine-3-sulfonamide], in that order: 170 to 174 °C and < 500 nM.
`CCC(NS(=O)(=O)c1ccc(-c2c(C#N)c3cc(OC)cnc3n2C2CCC2)nc1)C(F)(F)F` (stereo not shown) [Cpd 261, 6-(3-cyano-1-cyclobutyl-5-methoxy-1H-pyrrolo[2,3-b]pyridin-2-yl)-N-(1,1,1-trifluorobutan-2-yl)pyridine-3-sulfonamide] showed a melting point of 185 to 190 °C. In data set [1], the IC50 is < 500 nM.
The matching figures for `Cc1cnc2c(c1)c(C#N)c(-c1ccc(S(=O)(=O)N[C@H](C)C(F)(F)F)cc1)n2C1CCCC1` [Cpd 262, 4-(3-cyano-1-cyclopentyl-5-methyl-1H-pyrrolo[2,3-b]pyridin-2-yl)-N-[(2R)-1,1,1-trifluoropropan-2-yl]benzenesulfonamide]: 189 to 195 °C and < 500 nM.
`Cc1cnc2c(c1)c(C#N)c(-c1ccc(S(=O)(=O)N[C@@H](C)C(F)(F)F)cc1)n2C1CCCC1` [Cpd 263, 4-(3-cyano-1-cyclopentyl-5-methyl-1H-pyrrolo[2,3-b]pyridin-2-yl)-N-[(2S)-1,1,1-trifluoropropan-2-yl]benzenesulfonamide]: the melting point was 191 to 196 °C. For the same compound, the IC50 in data set [1] was < 500 nM.
`Cc1cnc2c(c1)c(C#N)c(-c1ccc(NC(C)C)cc1)n2C1CCC1` [Cpd 264, 1-cyclobutyl-5-methyl-2-[4-(propan-2-ylamino)phenyl]-1H-pyrrolo[2,3-b]pyridine-3-carbonitrile] displayed a melting point of 193 to 199 °C. In addition, in data set [1], the IC50 is < 500 nM.
The matching figures for `Cc1cnc2c(c1)c(C#N)c(-c1ccc(NC(=O)C(C)C)cc1)n2C1CCC1` [Cpd 265, N-[4-(3-cyano-1-cyclobutyl-5-methyl-1H-pyrrolo[2,3-b]pyridin-2-yl)phenyl]-2-methylpropanamide]: 134 to 140 °C and 500 to 2000 nM.
The matching figures for `Cc1cnc2c(c1)c(C#N)c(-c1ccc(NC(=O)NC(C)C)cc1)n2C1CCC1` [Cpd 266, 1-[4-(3-cyano-1-cyclobutyl-5-methyl-1H-pyrrolo[2,3-b]pyridin-2-yl)phenyl]-3-propan-2-ylurea]: 224 to 231 °C and < 500 nM.
`Cc1cnc2c(c1)c(C#N)c(-c1ccc(NS(=O)(=O)C(C)C)cc1)n2C1CCC1` [Cpd 267, N-[4-(3-cyano-1-cyclobutyl-5-methyl-1H-pyrrolo[2,3-b]pyridin-2-yl)phenyl]propane-2-sulfonamide]: the melting point was in the range of 155 to 164 °C. Further, the IC50 in data set [1] was 500 to 2000 nM.
For `COc1cnc2c(c1)c(C#N)c(-c1ccc(S(=O)(=O)N[C@H](C)C(F)(F)F)cn1)n2C1CCCC1` [Cpd 268, 6-(3-cyano-1-cyclopentyl-5-methoxy-1H-pyrrolo[2,3-b]pyridin-2-yl)-N-[(2R)-1,1,1-trifluoropropan-2-yl]pyridine-3-sulfonamide], in that order: 181 to 184 °C and 500 to 2000 nM.
The matching figures for `C[C@H](NS(=O)(=O)c1ccc(-c2c(C#N)c3cc(Cl)cnc3n2-c2ncccn2)nc1)C(F)(F)F` [Cpd 270, 6-[5-chloro-3-cyano-1-(pyrimidin-2-yl)-1H-pyrrolo[2,3-b]pyridin-2-yl]-N-[(2S)-1,1,1-trifluoropropan-2-yl]pyridine-3-sulfonamide]: 223 to 225 °C and < 500 nM.
For `COc1cnc2c(c1)c(C#N)c(-c1ccc(S(=O)(=O)NC(C)(C)C)cn1)n2C1CCC1` [Cpd 271, N-tert-butyl-6-(3-cyano-1-cyclobutyl-5-methoxy-1H-pyrrolo[2,3-b]pyridin-2-yl)pyridine-3-sulfonamide], in that order: 174 to 176 °C and 500 to 2000 nM.
With `CSc1cnc2c(c1)c(C#N)c(-c1ccc(S(=O)(=O)N[C@@H](C)C(F)(F)F)cn1)n2C1CCCC1` [Cpd 272, 6-[3-cyano-1-cyclopentyl-5-(methylsulfanyl)-1H-pyrrolo[2,3-b]pyridin-2-yl]-N-[(2S)-1,1,1-trifluoropropan-2-yl]pyridine-3-sulfonamide], the melting point lay within 168 to 172 °C. In data set [1], the IC50 is < 500 nM.
The matching figures for `CSc1cnc2c(c1)c(C#N)c(-c1ccc(S(=O)(=O)N[C@H](C)C(F)(F)F)cn1)n2C1CCCC1` [Cpd 273, 6-[3-cyano-1-cyclopentyl-5-(methylsulfanyl)-1H-pyrrolo[2,3-b]pyridin-2-yl]-N-[(2R)-1,1,1-trifluoropropan-2-yl]pyridine-3-sulfonamide]: 124 to 127 °C and < 500 nM.
